Data reported in ChEMBL document CHEMBL1142367, “1H-Pyrazolo[3,4-g]hexahydro-isoquinolines as selective glucocorticoid receptor antagonists with high functional activity” (Bioorg Med Chem Lett, 2008).
One block for each compound: values may come before it.

Legend:
[1] = target: T1, Glucocorticoid receptor (Homo sapiens, UniProt P04150); assay: Displacement of [3H]dexamethasone from human recombinant GR
T1 sequence (P04150 whole entry): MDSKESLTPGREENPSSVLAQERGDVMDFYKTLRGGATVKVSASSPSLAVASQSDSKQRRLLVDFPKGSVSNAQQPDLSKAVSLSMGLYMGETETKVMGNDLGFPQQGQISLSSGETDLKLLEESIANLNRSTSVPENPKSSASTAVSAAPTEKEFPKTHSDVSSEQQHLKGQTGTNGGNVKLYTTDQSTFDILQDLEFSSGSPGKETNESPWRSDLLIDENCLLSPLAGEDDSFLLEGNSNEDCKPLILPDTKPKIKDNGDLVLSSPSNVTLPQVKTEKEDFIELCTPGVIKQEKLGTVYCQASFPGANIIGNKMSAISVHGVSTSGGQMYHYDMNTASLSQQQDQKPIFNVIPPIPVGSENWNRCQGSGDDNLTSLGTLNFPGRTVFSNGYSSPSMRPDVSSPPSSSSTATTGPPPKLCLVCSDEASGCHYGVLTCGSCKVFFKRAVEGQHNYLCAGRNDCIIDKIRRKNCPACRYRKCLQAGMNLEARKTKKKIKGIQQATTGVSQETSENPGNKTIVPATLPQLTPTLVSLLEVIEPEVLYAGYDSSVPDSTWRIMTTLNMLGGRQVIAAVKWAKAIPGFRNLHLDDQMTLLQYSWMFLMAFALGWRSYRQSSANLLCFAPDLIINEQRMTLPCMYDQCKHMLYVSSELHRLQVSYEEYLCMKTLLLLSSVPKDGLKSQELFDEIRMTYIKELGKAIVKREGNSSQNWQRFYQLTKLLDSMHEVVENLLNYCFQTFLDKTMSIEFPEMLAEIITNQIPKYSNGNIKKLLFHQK

[2] = target: T1, Glucocorticoid receptor; assay: Antagonist activity at GR in SW1353/MMTV5 cells assessed as inhibition of dexamethasone-induced luciferase expression; type: functional, cell-based

Compound: CN1CCN(C[C@]23Cc4cnn(-c5ccc(F)cc5)c4C=C2CCN(S(=O)(=O)c2ccc(C(C)(C)C)cc2)C3)CC1
- Ki [1]: 6.7 nM
- Ki [2]: 85 nM

Compound: Cc1ccccc1S(=O)(=O)N1CCC2=Cc3c(cnn3-c3ccc(F)cc3)C[C@]2(C)C1
- Ki [1]: 22 nM

Compound: CC(C)(C)c1ccc(S(=O)(=O)N2CCC3=Cc4c(cnn4-c4ccc(F)cc4)C[C@]3(CNCCO)C2)cc1
- Ki [1]: 2.8 nM
- Ki [2]: 28 nM

Compound: C[C@]12Cc3cnn(-c4ccc(F)cc4)c3C=C1CCN(S(=O)(=O)c1ccc(F)cc1)C2
- Ki [1]: 9 nM
- Ki [2]: 293 nM

Compound: O=C(c1ccccc1)N1CCC2=Cc3c(cnn3-c3ccc(F)cc3)CC2(Cc2ccc(F)cc2)C1 (racemic)
- Ki [1]: > 1000 nM

Compound: O=S(=O)(c1ccccc1)N1CCC2=Cc3c(cnn3-c3ccc(F)cc3)C[C@]2(CO)C1
- Ki [1]: 10 nM

Compound: Fc1ccc(CC23Cc4cnn(-c5ccc(F)cc5)c4C=C2CCN(Cc2cccnc2)C3)cc1 (racemic)
- Ki [1]: 22 nM
- Ki [2]: > 1000 nM

Compound: C[C@]12Cc3cnn(-c4ccc(F)cc4)c3C=C1CCN(S(=O)(=O)c1ccccc1F)C2
- Ki [1]: 34 nM

Compound: CCN(CC)C[C@]12Cc3cnn(-c4ccc(F)cc4)c3C=C1CCN(S(=O)(=O)c1ccc(C(C)(C)C)cc1)C2
- Ki [1]: 1.7 nM
- Ki [2]: 14 nM

Compound: CS(=O)(=O)N1CCC2=Cc3c(cnn3-c3ccc(F)cc3)CC2(Cc2ccc(F)cc2)C1 (racemic)
- Ki [1]: 13 nM
- Ki [2]: > 1000 nM

Compound: COc1ccc(S(=O)(=O)N2CCC3=Cc4c(cnn4-c4ccc(F)cc4)C[C@]3(C)C2)cc1
- Ki [1]: 3.7 nM
- Ki [2]: 178 nM

Compound: O=S(=O)(c1ccc(F)cc1)N1CCC2=Cc3c(cnn3-c3ccc(F)cc3)C[C@]2(CO)C1
- Ki [1]: 8.6 nM
- Ki [2]: 184 nM

Compound: O=S(=O)(c1ccccc1)N1CCC2=Cc3c(cnn3-c3ccc(F)cc3)CC2(Cc2ccc(F)cc2)C1 (racemic)
- Ki [1]: 2.2 nM
- Ki [2]: 36 nM

Stronger by Ki [1], values ahead:

- Ki [1]: 0.9 nM
- Ki [2]: 6.8 nM
Compound: CCOC[C@]12Cc3cnn(-c4ccc(F)cc4)c3C=C1CCN(S(=O)(=O)c1ccc(C(F)(F)F)cc1)C2 [CORT 108297]

- Ki [1]: 0.8 nM
- Ki [2]: 1.6 nM
Compound: COCCCOC[C@]12Cc3cnn(-c4ccc(F)cc4)c3C=C1CCN(S(=O)(=O)c1ccc(C(C)(C)C)cc1)C2

- Ki [1]: 1.3 nM
- Ki [2]: 14 nM
Compound: CC(C)(C)c1ccc(S(=O)(=O)N2CCC3=Cc4c(cnn4-c4ccc(F)cc4)CC3(Cc3ccc(F)cc3)C2)cc1 (racemic)

- Ki [1]: 1.6 nM
- Ki [2]: 47 nM
Compound: CC(C)(C)c1ccc(S(=O)(=O)N2CCC3=Cc4c(cnn4-c4ccc(F)cc4)C[C@]3(CO)C2)cc1

- Ki [1]: 1.3 nM
- Ki [2]: 11 nM
Compound: O=S(=O)(c1ccc(N2CCOCC2)cc1)N1CCC2=Cc3c(cnn3-c3ccc(F)cc3)CC2(Cc2ccc(F)cc2)C1 (racemic)

- Ki [1]: 1.6 nM
- Ki [2]: 8 nM
Compound: O=S(=O)(c1ccc(F)cc1)N1CCC2=Cc3c(cnn3-c3ccc(F)cc3)C[C@]2(CN2CCCC2)C1

- Ki [1]: 1.1 nM
- Ki [2]: 10 nM
Compound: CN(C)C[C@]12Cc3cnn(-c4ccc(F)cc4)c3C=C1CCN(S(=O)(=O)c1ccccc1)C2

- Ki [1]: 0.5 nM
- Ki [2]: 5.7 nM
Compound: COC[C@]12Cc3cnn(-c4ccc(F)cc4)c3C=C1CCN(S(=O)(=O)c1ccc(C)cc1)C2

- Ki [1]: 0.8 nM
- Ki [2]: 1.9 nM
Compound: CCOC[C@]12Cc3cnn(-c4ccc(F)cc4)c3C=C1CCN(S(=O)(=O)c1ccc(C(C)(C)C)cc1)C2

- Ki [1]: 1.6 nM
- Ki [2]: 5.8 nM
Compound: CC(C)(C)c1ccc(S(=O)(=O)N2CCC3=Cc4c(cnn4-c4ccc(F)cc4)C[C@]3(CN3CCCCC3)C2)cc1

- Ki [1]: 0.9 nM
- Ki [2]: 9 nM
Compound: CCCOC[C@]12Cc3cnn(-c4ccc(F)cc4)c3C=C1CCN(S(=O)(=O)c1ccc(C(F)(F)F)cc1)C2

- Ki [1]: 0.8 nM
- Ki [2]: 8.7 nM
Compound: CC(C)(C)c1ccc(S(=O)(=O)N2CCC3=Cc4c(cnn4-c4ccc(F)cc4)C[C@]3(COCCO)C2)cc1

- Ki [1]: 1.5 nM
- Ki [2]: 4.9 nM
Compound: O=S(=O)(c1ccccc1)N1CCC2=Cc3c(cnn3-c3ccc(F)cc3)C[C@]2(CN2CCCC2)C1

- Ki [1]: 0.5 nM
- Ki [2]: 2.9 nM
Compound: COCCOC[C@]12Cc3cnn(-c4ccc(F)cc4)c3C=C1CCN(S(=O)(=O)c1ccccc1)C2
